This assay addresses T1, IRAK4 (Homo sapiens, UniProt Q9NWZ3).
T1 sequence (Q9NWZ3 1-460): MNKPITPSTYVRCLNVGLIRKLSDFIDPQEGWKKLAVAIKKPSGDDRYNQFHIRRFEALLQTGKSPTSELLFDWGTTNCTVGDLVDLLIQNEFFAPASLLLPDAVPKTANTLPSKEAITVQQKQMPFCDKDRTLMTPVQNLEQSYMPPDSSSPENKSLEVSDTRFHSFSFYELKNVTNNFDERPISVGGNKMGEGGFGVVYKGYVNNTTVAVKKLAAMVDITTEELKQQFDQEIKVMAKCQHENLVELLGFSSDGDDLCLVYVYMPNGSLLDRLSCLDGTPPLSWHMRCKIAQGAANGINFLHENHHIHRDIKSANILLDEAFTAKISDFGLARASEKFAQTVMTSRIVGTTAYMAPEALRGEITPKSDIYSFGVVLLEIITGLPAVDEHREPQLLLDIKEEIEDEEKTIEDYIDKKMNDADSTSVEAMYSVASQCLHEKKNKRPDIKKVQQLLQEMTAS
Nature of the assay: Degradation of IRAK4 in THP1 cells, Western blot. The assay is classed as cell-based. Particulars: THP-1 cells, 24 hours of incubation; for DC50: IRAK4 protein by Western blot, read-out: DC50; for Dmax: maximum degradation rate, read-out: Dmax. Further details: Degradation of IRAK4 in THP1 by compound; host or cells: THP-1. The procedure:
After 24 hours of incubation, the cells were collected into 1.5 mL centrifuge tubes and centrifuged at 1,000 rpm for 5 minutes. […] The supernatants were collected, and the IRAK4 protein levels were respectively detected by Western blot (WB). The total protein concentration in the cell lysate supernatant was determined using a BCA protein quantification kit (NCM). Based on the total protein concentration detected by BCA, the samples were adjusted to 2 μg/μL using cell lysis buffer and 5×SDS-PAGE protein loading buffer (Beyotime), heated at 95°C for 5 minutes in a metal bath, and then placed on ice for an ice bath for 5 minutes before being used as the loading samples for Western blot analysis. Protein electrophoresis was performed using a 10% SDS-PAGE gel with a loading volume of 20 μL (total protein 40 μg) and Tris-SDS electrophoresis at a constant voltage of 80 V. After electrophoresis, the proteins on the gel were transferred to a 0.2 μm PVDF membrane (Immobilon) using a semi-dry transfer method at 0.5 A and 20 V for 60 minutes. After transfer, the membrane was placed in 5% skimmed milk and incubated at rt for 2 hours. After blocking, the PVDF membrane was incubated with primary antibody against IRAK4 (Abcam) at 4°C overnight. […] The color development and protein band imaging were performed using a chemiluminescence imaging system ([…] Technology Co., Ltd.). The protein bands were analyzed for grayscale values using Image J analysis software. The corrected grayscale values for each sample were calculated and then compared with those of the control group treated with DMSO alone to calculate the degradation rate.

SMILES strings stand for the structures. Structures can show the parent of a compound that is named as a salt.

For the molecule `COc1ccc(C(=O)N2CCC(CCN3CCN(c4ccc(-n5cc(NC(=O)c6cccc(-c7ccn[nH]7)n6)c(S(N)(=O)=O)n5)cc4)CC3)CC2)cc1N1CCC(=O)NC1=O` [Compound A324], the DC50 was less than 100 nM and the Dmax was more than 60%.

Turning to `NS(=O)(=O)c1nn(-c2ccc(N3CCN(CC4CCN(c5ccc(NC6CCC(=O)NC6=O)cc5F)CC4)CC3)cc2)cc1NC(=O)c1cccc(-c2ccn[nH]2)n1` (stereo not drawn) [Compound A325, N-(1-(4-(4-((1-(-4-((2,6-dioxopiperidin-3-yl)amino)-2-fluorophenyl)piperidin-4-yl)methyl)piperazin-1-yl)phenyl)-3-sulfamoyl-1H-pyrazol-4-yl)-6-(1H-pyrazol-5-yl)picolinamide], the DC50 was less than 100 nM and the maximal degradation (Dmax) was more than 60%.

With `Cn1c(=O)n(C2CCC(=O)NC2=O)c2ccc(N3CCC(CN4CCN(c5ccc(-n6cc(NC(=O)c7cccc(-c8ccn[nH]8)n7)c(S(N)(=O)=O)n6)cc5)CC4)CC3)cc21` (stereo not drawn) [Compound A326, N-[3-(aminodioxyylidene-λ6-thio)-1-{4-[4-({1-[1-(2,6-dioxopiperidin-3-yl)-3-methyl-2-oxobenzo[d]imidazol-5-yl]piperidin-4-yl}methyl)piperazin-1-yl]phenyl}pyrazol-4-yl]-6-(2H-pyrazol-3-yl)pyridine-2-carboxamide], the DC50 was less than 100 nM and the Dmax was more than 60%.

For the molecule `Cn1c(=O)n(C2CCC(=O)NC2=O)c2cccc(N3CCC(CN4CCN(c5ccc(-n6cc(NC(=O)c7cccc(-c8ccn[nH]8)n7)c(S(N)(=O)=O)n6)cc5)CC4)CC3)c21` (stereo not drawn) [Compound A327, N-(1-(4-(4-((1-(1-(2,6-dioxopiperidin-3-yl)-3-methyl-2-oxo-2,3-dihydro-1H-benzo[d]imidazol-4-yl)piperidin-4-yl)methyl)piperazin-1-yl)phenyl)-3-sulfamoyl-1H-pyrazol-4-yl)-6-(1H-pyrazol-5-yl)picolinamide], the DC50 is less than 100 nM and the Dmax is more than 60%.

For `COc1ccc(C(=O)N2CCC(CCN3CCN(c4ccc(-n5cc(NC(=O)c6cccc(-c7ccn[nH]7)n6)c(S(N)(=O)=O)n5)cc4)CC3)C2)cc1N1CCC(=O)NC1=O` (stereo not drawn) [Compound A328, N-(1-(4-(4-(1-(3-(2,4-dioxotetrahydropyrimidin-1(2H)-yl)-4-methoxybenzoyl)pyrrolidin-3-ethyl)piperazin-1-yl)phenyl)-3-sulfonylamino-1H-pyrazol-4-yl)-6-(1H-pyrazol-5-yl)picolinamide trifluoroacetate], the DC50 is less than 100 nM and the Dmax was more than 60%.

Regarding `COc1ccc(C(=O)N2CCC(CN3CCN(c4ccc(-n5cc(NC(=O)c6cccc(-c7ccn[nH]7)n6)c(S(N)(=O)=O)n5)cc4)CC3)C2)cc1N1CCC(=O)NC1=O` (stereo not drawn) [Compound A329, N-(1-(4-(4-((1-(3-(2,4-dioxotetrahydropyrimidin-1(2H)-yl)-4-methoxybenzoyl)pyrrolidin-3-yl)methyl)piperazin-1-yl)phenyl)-3-sulfamoyl-1H-pyrazol-4-yl)-6-(1H-pyrazol-5-yl)picolinamide trifluoroacetate], the DC50 is less than 100 nM and the greatest degradation seen (Dmax) is more than 60%.

Consider `Cn1c(=O)n(C2CCC(=O)NC2=O)c2cccc(NCC3CCC4(CC3)CCN(C(=O)c3ccc(-n5cc(NC(=O)c6cccc(-c7ccn[nH]7)n6)c(S(N)(=O)=O)n5)cc3)CC4)c21` (stereo not drawn) [Compound A330], for which the 50% degradation concentration (DC50) is less than 100 nM and the maximal degradation (Dmax) was more than 60%.

`Cn1c(=O)n(C2CCC(=O)NC2=O)c2cccc(N3CCC(C(=O)N4CCN(Cc5ccc(-n6cc(NC(=O)c7cccc(-c8ccn[nH]8)n7)c(S(N)(=O)=O)n6)cc5)CC4)CC3)c21` (stereo not drawn) [Compound A331, N-(1-(4-((4-(1-(1-(2,6-dioxopiperidin-3-yl)-3-methyl-2-oxo-2,3-dihydro-1H-benzo[d]imidazol-4-yl)piperidine-4-carbonyl)piperazin-1-yl)methyl)phenyl)-3-sulfamoyl-1H-pyrazol-4-yl)-6-(1H-pyrazol-5-yl)picolinamide]: the DC50 was less than 100 nM and the maximal degradation (Dmax) is more than 60%.

In the case of `Cn1c(=O)n(C2CCC(=O)NC2=O)c2cccc(N3CCN(C(=O)C4CCN(Cc5ccc(-n6cc(NC(=O)c7cccc(-c8ccn[nH]8)n7)c(S(N)(=O)=O)n6)cc5)CC4)CC3)c21` (stereo not drawn) [Compound A332, N-(1-(4-((4-(4-(1-(2,6-Dioxopiperidin-3-yl)-3-methyl-2-oxo-2,3-dihydro-1H-benzo[d]imidazol-4-yl)piperazine-1-carbonyl)piperidin-1-yl)methyl)phenyl)-3-sulfamoyl-1H-pyrazol-4-yl)-6-(1H-pyrazol-5-yl)picolinamide], the DC50 was less than 100 nM and the Dmax is more than 60%.

On to `Cn1c(=O)n(C2CCC(=O)NC2=O)c2cccc(NCCN3CCC4(CCN(C(=O)c5ccc(-n6cc(NC(=O)c7cccc(-c8ccn[nH]8)n7)c(S(N)(=O)=O)n6)cc5)C4)C3)c21` (stereo not drawn) [Compound A333], for which the DC50 was less than 100 nM and the Dmax was more than 60%.

As to `Cn1c(=O)n(C2CCC(=O)NC2=O)c2cccc(NCCN3CC4(C3)CN(Cc3ccc(-n5cc(NC(=O)c6cccc(-c7ccn[nH]7)n6)c(S(N)(=O)=O)n5)cc3)C4)c21` (stereo not drawn) [Compound A334], the half-maximal degradation concentration (DC50) is less than 100 nM and the Dmax was more than 60%.

In the case of `Cn1c(=O)n(C2CCC(=O)NC2=O)c2cccc(C#CCOC3CCN(C(=O)c4ccc(-n5cc(NC(=O)c6cccc(-c7ccn[nH]7)n6)c(S(N)(=O)=O)n5)cc4)CC3)c21` (stereo not drawn) [Compound A335, N-(1-(4-(4-((3-(1-(2,6-Dioxopiperidin-3-yl)-3-methyl-2-oxo-2,3-dihydro-1H-benzo[d]imidazol-4-yl)prop-2-yn-1-yl)oxy)piperidine-1-carbonyl)phenyl)-3-sulfamoyl-1H-pyrazol-4-yl)-6-(1H-pyrazol-5-yl)picolinamide], the DC50 was less than 100 nM and the Dmax was more than 60%.

Regarding `Cn1c(=O)n(C2CCC(=O)NC2=O)c2cccc(C#CCCN3CCN(C(=O)c4ccc(-n5cc(NC(=O)c6cccc(-c7ccn[nH]7)n6)c(S(N)(=O)=O)n5)cc4)CC3)c21` (stereo not drawn) [Compound A336], the DC50 was less than 100 nM and the Dmax is more than 60%.

Turning to `CN(CCN1CC2CN(c3cccc4c3n(C)c(=O)n4C3CCC(=O)NC3=O)CC2C1)Cc1ccc(-n2cc(NC(=O)c3cccc(-c4ccn[nH]4)n3)c(S(N)(=O)=O)n2)cc1` (stereo not drawn) [Compound A337, N-(1-(4-(((2-(5-(1-(2,6-Dioxopiperidin-3-yl)-3-methyl-2-oxo-2,3-dihydro-1H-benzo[d]imidazol-4-yl)hexahydropyrrolo[3,4-c]pyrrol-2(1H)-yl)ethyl)(methyl)amino)methyl)phenyl)-3-sulfamoyl-1H-pyrazol-4-yl)-6-(1H-pyrazol-5-yl)picolinamide], the half-maximal degradation concentration (DC50) was less than 100 nM and the Dmax was more than 60%.

In the case of `Cn1c(=O)n(C2CCC(=O)NC2=O)c2cccc(NCCN3CC4CN(Cc5ccc(-n6cc(NC(=O)c7cccc(-c8ccn[nH]8)n7)c(S(N)(=O)=O)n6)cc5)CC4C3)c21` (stereo not drawn) [Compound A338], the DC50 was less than 100 nM and the maximal degradation (Dmax) is more than 60%.

In the case of `Cn1c(=O)n(C2CCC(=O)NC2=O)c2cccc(NCCN3CC4CN(C(=O)c5ccc(-n6cc(NC(=O)c7cccc(-c8ccn[nH]8)n7)c(S(N)(=O)=O)n6)cc5)CC4C3)c21` (stereo not drawn) [Compound A339], the half-maximal degradation concentration (DC50) was less than 100 nM and the Dmax was more than 60%.

For `Cn1c(=O)n(C2CCC(=O)NC2=O)c2cccc(C#CCOC3CCN(Cc4ccc(-n5cc(NC(=O)c6cccc(-c7ccn[nH]7)n6)c(S(N)(=O)=O)n5)cc4)CC3)c21` (stereo not drawn) [Compound A340, N-(1-(4-((4-((3-(1-(2,6-Dioxopiperidin-3-yl)-3-methyl-2-oxo-2,3-dihydro-1H-benzo[d]imidazol-4-yl)prop-2-yn-1-yl)oxy)piperidin-1-yl)methyl)phenyl)-3-sulfamoyl-1H-pyrazol-4-yl)-6-(1H-pyrazol-5-yl)picolinamide], the half-maximal degradation concentration (DC50) was less than 100 nM and the greatest degradation seen (Dmax) is more than 60%.

In the case of `Cn1c(=O)n(C2CCC(=O)NC2=O)c2cccc(N3CCC4(CCN(CCNC(=O)c5ccc(-n6cc(NC(=O)c7cccc(-c8ccn[nH]8)n7)c(S(N)(=O)=O)n6)cc5)C4)C3)c21` (stereo not drawn) [Compound A341, N-(1-(4-((2-(7-(1-(2,6-Dioxopiperidin-3-yl)-3-methyl-2-oxo-2,3-dihydro-1H-benzo[d]imidazol-4-yl)-2,7-diazaspiro[4.4]nonan-2-yl)ethyl)carbamoyl)phenyl)-3-sulfamoyl-1H-pyrazol-4-yl)-6-(1H-pyrazol-5-yl)picolinamide formate], the 50% degradation concentration (DC50) was less than 100 nM and the greatest degradation seen (Dmax) was more than 60%.

For orientation: DC50 means the concentration giving 50% degradation. For orientation: Dmax means the largest share of the target that was removed.

Source of the values: EP4763839A1 (Pamplona Therapeutics (Shenzhen) Co., Ltd., priority 2023, dated 2025).
